Data as given in PMC12527922, “Cocaine chemogenetics blunts drug-seeking by synthetic physiology” (Nature, 2025).

Biological target: coca-5HT3 (α7(L141G,G175K,Y210F,Y217F)–5HT3) (Homo sapiens, UniProt P36544, G175K/L141G/Y210F/Y217F)
Assay: Membrane potential assay, coca-5HT3 in HEK293
Details: for Response / Max normalized Response: coca-5HT3; for Response: ED Fig 3a; for Max normalized Response: ED Fig 3b

Sequence of coca-5HT3 (α7(L141G,G175K,Y210F,Y217F)–5HT3) (P36544 23-224 L141G/G175K/Y210F/Y217F): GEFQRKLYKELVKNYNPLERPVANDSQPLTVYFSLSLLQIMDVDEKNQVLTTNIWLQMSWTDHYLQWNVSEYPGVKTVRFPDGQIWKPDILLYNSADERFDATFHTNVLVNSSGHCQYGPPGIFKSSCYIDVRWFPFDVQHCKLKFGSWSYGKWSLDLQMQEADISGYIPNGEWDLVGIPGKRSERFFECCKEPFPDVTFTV
Sequence of coca-5HT3 (α7(L141G,G175K,Y210F,Y217F)–5HT3) (P23979 242-489, further chain): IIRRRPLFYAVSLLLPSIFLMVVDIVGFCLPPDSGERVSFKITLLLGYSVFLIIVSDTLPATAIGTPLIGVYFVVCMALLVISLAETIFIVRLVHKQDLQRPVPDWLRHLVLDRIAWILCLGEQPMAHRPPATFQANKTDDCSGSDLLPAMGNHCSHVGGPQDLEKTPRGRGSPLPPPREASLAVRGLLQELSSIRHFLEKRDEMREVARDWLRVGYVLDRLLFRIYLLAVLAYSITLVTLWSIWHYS

**Q.** Which Response (conc 0.457247 uM) does the source give for `CCCCC/C=C\C/C=C\C/C=C\C/C=C\CCCC(=O)NCCO` [Anandamide] here?
**A.** 0.053

**Q.** And the Response (conc 1.37174 uM)?
**A.** 0.085

**Q.** What about the Response (conc 12.3457 uM) of the same compound?
**A.** 0.046

**Q.** What about the Response (conc 37.037 uM) of the same compound?
**A.** 0.011

**Q.** And the Response (conc 111.111 uM)?
**A.** 0.073

**Q.** And the Response (conc 333.333 uM)?
**A.** 0.021

**Q.** What about the Response (conc 1000 uM) of the same compound?
**A.** 0.149

**Q.** With `N[C@@H](CC(=O)O)C(=O)O` [Aspartate] as the compound, how does the Response (conc 0.457247 uM) read?
**A.** 0.065

**Q.** And the Response (conc 1.37174 uM)?
**A.** 0.034

**Q.** And the Response (conc 12.3457 uM)?
**A.** 0.025

**Q.** What about the Response (conc 37.037 uM) of the same compound?
**A.** 0.074

**Q.** What about the Response (conc 111.111 uM) of the same compound?
**A.** 0.072

**Q.** And the Response (conc 333.333 uM)?
**A.** 0.088

**Q.** And the Response (conc 1000 uM)?
**A.** 0.232

**Q.** For `CN1[C@@H]2CC[C@H]1C[C@@H](OC(c1ccccc1)c1ccccc1)C2` [Benztropine], which “response at coca-5HT3” value (between 10-100 µM) is on record?
**A.** substantial response

**Q.** And the “Max normalized Response” value (conc 0.137 uM)?
**A.** 0.05732

**Q.** What about the “Max normalized Response” value (conc 3.7 uM) of the same compound?
**A.** 0.1399

**Q.** What about the “Max normalized Response” value (conc 11.1 uM) of the same compound?
**A.** 0.2931

**Q.** What about the “Max normalized Response” value (conc 33.3 uM) of the same compound?
**A.** 0.5901

**Q.** What about the “Max normalized Response” value (conc 100 uM) of the same compound?
**A.** 1.051

**Q.** What does the source list for `N[C@H](CO)C(=O)O` [D-serine]?
**A.** Response (conc 0.457247 uM): 0.104; Response (conc 1.37174 uM): 0.061; Response (conc 12.3457 uM): 0.037; Response (conc 37.037 uM): 0.062; Response (conc 111.111 uM): 0.111; Response (conc 333.333 uM): 0.06; Response (conc 1000 uM): 0.145

**Q.** Which Response (conc 0.457247 uM) does the source give for `NCCc1ccc(O)c(O)c1` [Dopamine] here?
**A.** 0.119

**Q.** And the Response (conc 1.37174 uM)?
**A.** 0.062

**Q.** What about the Response (conc 12.3457 uM) of the same compound?
**A.** 0.04

**Q.** And the Response (conc 37.037 uM)?
**A.** 0.017

**Q.** And the Response (conc 111.111 uM)?
**A.** 0.052

**Q.** And the Response (conc 333.333 uM)?
**A.** 0.039

**Q.** And the Response (conc 1000 uM)?
**A.** 0.106

**Q.** Which Response (conc 0.457247 uM) does the source give for `CNC[C@H](O)c1ccc(O)c(O)c1` [Epinephrine] here?
**A.** 0.136

**Q.** And the Response (conc 1.37174 uM)?
**A.** 0.141

**Q.** What about the Response (conc 12.3457 uM) of the same compound?
**A.** 0.06

**Q.** And the Response (conc 37.037 uM)?
**A.** 0.029

**Q.** And the Response (conc 111.111 uM)?
**A.** 0.188

**Q.** What does the source list for `NCCCC(=O)O` [GABA]?
**A.** Response (conc 0.457247 uM): 0.157; Response (conc 1.37174 uM): 0.099; Response (conc 12.3457 uM): 0.041; Response (conc 37.037 uM): 0.055; Response (conc 111.111 uM): 0.023; Response (conc 333.333 uM): 0.05; Response (conc 1000 uM): 0.066

**Q.** Which Response (conc 0.457247 uM) does the source give for `N[C@@H](CCC(=O)O)C(=O)O` [Glutmate] here?
**A.** 0.109

**Q.** And the Response (conc 1.37174 uM)?
**A.** 0.069

**Q.** What about the Response (conc 12.3457 uM) of the same compound?
**A.** 0

**Q.** What about the Response (conc 37.037 uM) of the same compound?
**A.** 0.041

**Q.** And the Response (conc 111.111 uM)?
**A.** 0.031

**Q.** And the Response (conc 333.333 uM)?
**A.** 0.048

**Q.** What about the Response (conc 1000 uM) of the same compound?
**A.** 0.028

**Q.** What does the source list for `NCC(=O)O` [Glycine]?
**A.** Response (conc 0.457247 uM): 0.223; Response (conc 1.37174 uM): 0.03; Response (conc 12.3457 uM): 0.032; Response (conc 37.037 uM): 0.042; Response (conc 111.111 uM): 0.053; Response (conc 333.333 uM): 0.108; Response (conc 1000 uM): 0.232

**Q.** `NCCc1c[nH]cn1` [Histamine] was tested. Which Response (conc 0.457247 uM) did it give?
**A.** 0.136

**Q.** And the Response (conc 1.37174 uM)?
**A.** 0.016

**Q.** What about the Response (conc 12.3457 uM) of the same compound?
**A.** 0.035

**Q.** And the Response (conc 37.037 uM)?
**A.** 0.028

**Q.** And the Response (conc 111.111 uM)?
**A.** 0.056

**Q.** And the Response (conc 333.333 uM)?
**A.** 0.051

**Q.** What about the Response (conc 1000 uM) of the same compound?
**A.** 0.086

**Q.** `CN1[C@@H]2CC[C@H]1C[C@@H](OC(=O)[C@H](CO)c1ccccc1)C2` [Hyoscyamine] was tested. Which “Max normalized Response” value (conc 0.137 uM) did it give?
**A.** 0.1005

**Q.** And the “Max normalized Response” value (conc 3.7 uM)?
**A.** 0.08466

**Q.** And the “Max normalized Response” value (conc 11.1 uM)?
**A.** 0.09524

**Q.** And the “Max normalized Response” value (conc 33.3 uM)?
**A.** 0.1217

**Q.** What about the “Max normalized Response” value (conc 100 uM) of the same compound?
**A.** 0.01058

**Q.** Which “Max normalized Response” value (conc 0.137 uM) does the source give for `CC(C)[N+]1(C)[C@@H]2CC[C@H]1C[C@@H](OC(=O)C(CO)c1ccccc1)C2` (some centres unmarked) [Ipatropium] here?
**A.** 0.03351

**Q.** And the “Max normalized Response” value (conc 3.7 uM)?
**A.** 0.3358

**Q.** And the “Max normalized Response” value (conc 11.1 uM)?
**A.** 0.05921

**Q.** And the “Max normalized Response” value (conc 33.3 uM)?
**A.** 0.03979

**Q.** And the “Max normalized Response” value (conc 100 uM)?
**A.** 0.03984

**Q.** Which “Max normalized Response” value (conc 0.137 uM) does the source give for `CCN(CC)CC(=O)Nc1c(C)cccc1C` [Lidocaine] here?
**A.** 0.1106

**Q.** What about the “Max normalized Response” value (conc 3.7 uM) of the same compound?
**A.** 0.1119

**Q.** What about the “Max normalized Response” value (conc 11.1 uM) of the same compound?
**A.** 0.1369

**Q.** What about the “Max normalized Response” value (conc 33.3 uM) of the same compound?
**A.** 0.1879

**Q.** And the “Max normalized Response” value (conc 100 uM)?
**A.** 0.1519

**Q.** What about the “activation of coca-5HT3” value (up to 100 µM) of the same compound?
**A.** did not activate
